Values joined by “and” are separate entries in the source; they are usually repeats but may differ in a detail not shown here. Equal entries are not always repeated.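 A five-concentration, 48-hour dose response in 96-well plates underlies each endpoint, interpolated linearly between surrounding concentrations. The concentration for 50% growth inhibition is given as GI50. At the TGI there is no net growth.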
Tests used:
Test in all cases: inhibition of tumour cell growth, NCI panel, 48 h
HCT-15 colon = test system: HCT-15 colon
NCI-H522 lung = test system: NCI-H522 lung
HS 578T breast = test system: HS 578T breast
EKVX NSCLC = test system: EKVX NSCLC
NCI-H460 lung = test system: NCI-H460 lung
ACHN renal = test system: ACHN renal
U251 CNS = test system: U251 CNS
LOX IMVI melanoma = test system: LOX IMVI melanoma
CCRF-CEM leukemia = test system: CCRF-CEM leukemia
K-562 leukemia = test system: K-562 leukemia

SMILES	GI50 (HCT-15 colon)	TGI (HCT-15 colon)	GI50 (NCI-H522 lung)	TGI (NCI-H522 lung)	GI50 (HS 578T breast)	TGI (HS 578T breast)	GI50 (EKVX NSCLC)	TGI (EKVX NSCLC)	GI50 (NCI-H460 lung)	TGI (NCI-H460 lung)	GI50 (ACHN renal)	TGI (ACHN renal)	GI50 (U251 CNS)	TGI (U251 CNS)	GI50 (LOX IMVI melanoma)	TGI (LOX IMVI melanoma)	GI50 (CCRF-CEM leukemia)	TGI (CCRF-CEM leukemia)	GI50 (K-562 leukemia)	TGI (K-562 leukemia)
COc1cc(C2CC(c3ccc(N(C)C)cc3)=NN2C(C)=O)cc(OC)c1OC (stereo unspecified)	1 µM	> 100 µM	1.95 µM	> 27.1 µM	0.441 µM	3.03 µM	5.53 µM	> 100 µM	1.41 µM	> 100 µM	3.57 µM	> 100 µM	1.65 µM	> 100 µM	2.28 µM	> 100 µM	8.17 µM	> 100 µM	1.74 µM	> 100 µM
C=C1CCC2C3(C)COC(c4ccccc4Br)OC3CCC2(C)C1C/C=C1/C(=O)OCC1OC(C)=O (stereo unspecified)	0.73 µM	2.25 µM	0.604 µM	2.03 µM	1.89 µM	4.65 µM	2.55 µM	10.1 µM	1.74 µM	3.29 µM	1.6 µM	2.96 µM	1.22 µM	2.46 µM	0.422 µM	0.826 µM	0.381 µM	3.96 µM	0.396 µM	4.4 µM
COC(=O)C(F)C(Br)C(=O)OC (stereo unspecified)		3.84 µM		3.94 µM		68.6 µM		3.92 µM		39.3 µM		3.39 µM		9.84 µM		32 µM		2.29 µM		3.72 µM
Nc1nc(N)c(N=O)c(OCC2CCCCC2)n1		> 100 µM	10 µM	> 73.3 µM and 50.7 µM	2.81 µM	21 µM and 46.1 µM	27 µM	> 94.5 µM and 64.2 µM	8.93 µM	> 80.5 µM and 38.1 µM	5.47 µM	> 100 µM and 34.3 µM	13.9 µM	> 100 µM and 52.5 µM	4.77 µM	> 100 µM	8.83 µM	> 100 µM		> 100 µM
CCCCNC(=O)NS(=O)(=O)c1ccc(N2N=C(c3cc(C)ccc3C)CC2c2cc(OC)c(OC)c(OC)c2)cc1 (stereo unspecified)	2.81 µM	11.1 µM	2.39 µM	7.75 µM	2.2 µM	5.78 µM			2.46 µM	5.96 µM	3.69 µM	12.5 µM	2.11 µM	5.62 µM	2.24 µM	4.75 µM	2.2 µM	6.12 µM	3.14 µM	12.7 µM
COc1ccc(/C=C2\CCC(CN(C)C)C2=O)cc1OC (stereo unspecified)		8.81 µM		4.23 µM		> 100 µM		34.1 µM		26.6 µM		15.9 µM		30.8 µM		3.96 µM		6.74 µM		9.12 µM
CC(C)c1ccc(Nc2nccc(-c3cnn4ncccc34)n2)cc1	0.614 µM	> 25 µM	0.564 µM	3.35 µM	0.623 µM	5.16 µM	0.64 µM	10.2 µM	0.496 µM	4.95 µM	0.189 µM	> 10.3 µM	0.559 µM	> 9.71 µM	0.209 µM	> 7.75 µM	0.703 µM	> 20.5 µM	1.19 µM	> 25 µM
Nc1ccc(-c2ccc(N)cc2I)c(I)c1	13.7 µM	34.1 µM	16.4 µM	36.7 µM	17.1 µM	88.3 µM	19.1 µM	70.1 µM	19.4 µM	39.3 µM	22.6 µM	89.6 µM	16.3 µM	35.6 µM	16.3 µM	31.2 µM	8.14 µM	43.3 µM	5.89 µM	39.1 µM
CCCCCCCOc1c(OC)cc(C2CC(=O)Nc3c2c(C)nn3-c2nc3ccccc3[nH]2)cc1OC (stereo unspecified)	3.12 µM	> 100 µM	2.79 µM	10.3 µM	1.35 µM	4.43 µM	2.54 µM	8.15 µM	1.87 µM	3.82 µM	3.21 µM	> 100 µM	3.72 µM	> 100 µM	2.12 µM	4.51 µM	4.15 µM	> 100 µM	4.23 µM	> 100 µM
CSc1ccccc1C#Cc1ccccc1C#CCCCCO	3.85 µM	15.9 µM	14.2 µM	29.4 µM	7.62 µM	32.3 µM	16.9 µM	34.4 µM	8.64 µM	22.2 µM	11.3 µM	23.4 µM	10.8 µM	22.7 µM	5.87 µM	19.2 µM	10.3 µM	46.5 µM	6.19 µM	54.4 µM
Nc1n[nH]c2cccc(C#Cc3cccc(C(=O)Nc4cc(CN5CCOCC5)cc(C(F)(F)F)c4)c3)c12	3.57 µM	15.2 µM	3.62 µM	16.2 µM	2.75 µM	34.1 µM	5.58 µM	19.9 µM	4.11 µM	16.9 µM	3.06 µM	11.8 µM	5.57 µM	19.2 µM	1.87 µM	5.63 µM	3.68 µM	20.3 µM	0.0651 µM	2.41 µM
CC12CC(OC(=O)[C@]1(C)O)[C@@H]([C@]1(O)CC[C@H]3[C@@H]4C[C@H]5O[C@]56[C@@H](O)C=CC(=O)[C@]6(C)[C@H]4CC[C@@]31C)C2 (stereo partly specified)		25.3 µM		2.92 µM		35.7 µM		9.94 µM		32.3 µM		22.9 µM		30 µM		15.9 µM		7.16 µM		13.8 µM
O=C(c1cccnc1)c1cc(-c2ccccn2)c(=O)n2ccccc12	> 100 µM	> 100 µM	> 100 µM	> 100 µM	> 100 µM	> 100 µM	> 100 µM	> 100 µM	> 100 µM	> 100 µM	> 100 µM	> 100 µM	> 100 µM	> 100 µM	> 100 µM	> 100 µM	> 100 µM	> 100 µM	> 100 µM	> 100 µM
